Measured values: article PMC11418212, “Characterization of four structurally diverse inhibitors of SUR2-containing KATP channels” (Channels, 2024)
Several values for one entry are separate records, joined by “and”; a condition that tells them apart may be missing. Identical values can stand only once.

Assays:
Assay in all cases: Kir family selectivity thallium flux assay
Format in all cases: cell-based
[1] = target: T1, Kir2.1 (Homo sapiens, UniProt P63252)
T1 construct: expressed in transfected cells
T1 sequence (P63252 1-427): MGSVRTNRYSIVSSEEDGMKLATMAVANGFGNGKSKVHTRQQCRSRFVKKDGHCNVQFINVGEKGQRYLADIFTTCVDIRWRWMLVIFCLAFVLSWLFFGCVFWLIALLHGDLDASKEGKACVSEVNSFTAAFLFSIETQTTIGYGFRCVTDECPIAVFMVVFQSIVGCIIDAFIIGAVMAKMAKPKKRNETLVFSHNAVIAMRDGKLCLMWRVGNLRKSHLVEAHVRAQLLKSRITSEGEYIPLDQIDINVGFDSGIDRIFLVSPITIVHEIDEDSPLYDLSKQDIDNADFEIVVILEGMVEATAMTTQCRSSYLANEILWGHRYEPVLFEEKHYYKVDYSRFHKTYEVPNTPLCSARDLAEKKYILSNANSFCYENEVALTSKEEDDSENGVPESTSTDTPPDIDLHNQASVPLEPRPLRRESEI
Description: (§1) Thallium flux assays were conducted using the established methods. Stably transfected T-REx-HEK-293 cells expressing Kir6.2/SUR1 or Kir6.1/SUR2B were cultured overnight in polyamine-coated plates (black-walled, clear-bottomed; BD, Bedford, MA) at a density of 20,000 cells in 20 µl per well of cell culture media. The expression of Kir6.2/SUR1 or Kir6.1/SUR2B channels was induced by treating cells with 1 µg/ml tetracycline overnight. The following day, cells were rinsed with an assay buffer (Hanks’ Balanced Salt Solution supplied with 20 mM HEPES), loaded with the thallium-sensor dye Brilliant Thallos-AM AM (Ion Bioscience, San Marcos, TX) for 1 h, and then washed again with assay buffer to remove unincorporated dye. The cell plate was subsequently placed in a Panoptic Kinetic Imaging Plate Reader (Wavefront Bioscience, Franklin, TN) and imaged at a frequency of 1 Hz using 482/35 nm (excitation) and 536/40 nm (emission) filter sets. Kir6.1/SUR2B channels were activated with 10 µM pinacidil, whereas Kir6.1/SUR1 was activated with 30 µM VU0071063 [34]. To activate KATP channels independent of activators with ATP-depletion method, cells were treated with a cocktail of metabolic inhibitors (2.5 mM sodium cyanide and 20 mM 2-deoxy glucose) for 25 min before imagine. Control and test compounds diluted freshly from DMSO stocks into assay buffer were added to wells for four minutes before adding 0.5 mM chloride-free thallium stimulus buffer (Ion Bioscience) to initiate thallium flux through the expressed KATP channels. Thallium flux was recorded from all 384-wells for 2 min before terminating the experiment. […] Selectivity assays against other Kir channels were performed as described previously.
(§2) To begin elucidating the binding site location of VU0212387, VU0543336, VU0605768, and VU0544086, we evaluated the activity of the inhibitors against KATP channels composed of different Kir and SUR subunit combinations expressed in HEK293 cells. Specifically, the compounds were tested against Kir6.1/SUR1, Kir6.2/SUR1, Kir6.1/SUR2A, Kir6.2/SUR2A, Kir6.1/SUR2B, and Kir6.2/SUR2B at a dose of 3 µM. […] We expanded the selectivity analysis to include 10 other members of the Kir channel family.

[2] = target: T2, Kir2.2 (Homo sapiens, UniProt Q14500)
T2 construct: expressed in transfected cells
T2 sequence (Q14500 1-433): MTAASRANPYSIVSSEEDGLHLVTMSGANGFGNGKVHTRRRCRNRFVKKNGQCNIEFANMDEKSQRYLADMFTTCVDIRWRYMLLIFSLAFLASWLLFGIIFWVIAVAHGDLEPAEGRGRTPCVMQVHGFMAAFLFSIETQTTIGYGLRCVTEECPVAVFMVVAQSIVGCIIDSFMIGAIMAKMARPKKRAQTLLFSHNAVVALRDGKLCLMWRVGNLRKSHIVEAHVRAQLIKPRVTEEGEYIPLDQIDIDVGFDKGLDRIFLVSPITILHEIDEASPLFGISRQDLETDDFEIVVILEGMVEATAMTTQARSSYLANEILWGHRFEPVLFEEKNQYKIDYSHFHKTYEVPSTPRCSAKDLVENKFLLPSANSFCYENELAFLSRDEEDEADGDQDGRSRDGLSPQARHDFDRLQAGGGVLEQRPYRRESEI
Description: as §1, §2

[3] = target: T3, Kir4.1/5.1 (Homo sapiens, UniProt P78508+Q9NPI9)
T3 construct: expressed in transfected cells
T3 sequence (P78508 1-379): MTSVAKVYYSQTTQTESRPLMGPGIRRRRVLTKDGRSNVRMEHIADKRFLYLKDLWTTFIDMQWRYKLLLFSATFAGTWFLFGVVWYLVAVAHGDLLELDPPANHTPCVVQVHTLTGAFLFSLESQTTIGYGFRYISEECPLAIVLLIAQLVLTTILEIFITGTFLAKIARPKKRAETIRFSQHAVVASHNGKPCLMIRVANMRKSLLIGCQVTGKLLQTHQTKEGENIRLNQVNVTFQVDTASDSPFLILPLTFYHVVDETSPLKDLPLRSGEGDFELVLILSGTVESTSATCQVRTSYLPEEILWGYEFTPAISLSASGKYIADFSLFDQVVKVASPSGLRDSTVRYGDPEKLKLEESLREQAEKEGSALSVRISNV
T3 sequence (Q9NPI9 1-418): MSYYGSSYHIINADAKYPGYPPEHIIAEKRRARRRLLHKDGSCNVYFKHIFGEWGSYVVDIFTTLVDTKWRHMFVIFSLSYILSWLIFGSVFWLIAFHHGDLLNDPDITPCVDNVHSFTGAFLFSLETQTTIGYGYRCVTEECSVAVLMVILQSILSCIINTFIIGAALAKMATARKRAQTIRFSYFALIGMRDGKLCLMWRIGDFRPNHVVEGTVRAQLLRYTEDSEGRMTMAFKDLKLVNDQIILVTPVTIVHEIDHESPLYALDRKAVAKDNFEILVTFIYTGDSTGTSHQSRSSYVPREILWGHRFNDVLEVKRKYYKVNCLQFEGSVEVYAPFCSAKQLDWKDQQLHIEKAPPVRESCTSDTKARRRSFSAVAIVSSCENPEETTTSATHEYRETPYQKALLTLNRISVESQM
Description: as §1, §2

[4] = target: T4, Kir7.1 (M125R) (Homo sapiens, UniProt O60928, M125R); details: for IC50: thallium flux
T4 construct: expressed in transfected cells
T4 sequence (O60928 1-360 M125R): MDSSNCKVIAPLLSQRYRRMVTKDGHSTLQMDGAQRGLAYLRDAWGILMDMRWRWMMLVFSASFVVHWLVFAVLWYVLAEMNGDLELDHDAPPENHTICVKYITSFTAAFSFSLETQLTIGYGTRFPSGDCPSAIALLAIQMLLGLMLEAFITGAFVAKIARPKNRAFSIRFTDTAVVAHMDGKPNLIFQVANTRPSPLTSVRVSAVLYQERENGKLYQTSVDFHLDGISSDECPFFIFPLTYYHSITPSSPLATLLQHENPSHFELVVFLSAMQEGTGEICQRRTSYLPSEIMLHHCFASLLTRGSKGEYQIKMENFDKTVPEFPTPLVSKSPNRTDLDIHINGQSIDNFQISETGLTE
Description: as §1, §2

| SMILES | IC50 [1] [µM] | IC50 [2] [µM] | IC50 [3] [µM] | IC50 [4] | inhibition at 30 µM ([4]; observed at 30 µM, read-out: Percent maximal inhibition of Kir7.1 (M125R)) [%] |
| --- | --- | --- | --- | --- | --- |
| O=C(NCc1cc(-c2ccncc2)n(C2CCCC2)n1)Nc1cccs1 [VU0544086, 1-((1-cyclopentyl-5-(pyridin-4-yl)-1 H-pyrazol-3-yl)methyl)-3-(thiophen-2-yl)urea] | > 30 | > 30 | > 30 | > 30 µM | – |
| O=C(NCC(O)(c1ccccc1)C(F)(F)F)c1ccc(OC(F)(F)F)cc1 (centres unmarked) [VU0543336, N-(3,3,3-trifluoro-2-hydroxy-2-phenylpropyl)-4-(trifluoromethoxy)benzamide] | > 30 | > 30 | > 30 | > 30 µM | – |
| O=C1c2oc3ccccc3c(=O)c2C(c2cccc(Br)c2)N1CCO (centres unmarked) [VU0605768, 1-(3-bromophenyl)-2-(2-hydroxyethyl)-1,2-dihydrochromeno[2,3-c]pyrrole-3,9-dione] | > 30 | > 30 | > 30 | > 30 µM | – |
| c1ccc2[nH]c(CSc3ncnc4c3oc3ccccc34)nc2c1 [VU0212387, 4-(((1 H-benzo[d]imidazol-2-yl)methyl)thio)benzofuro[3,2-d]pyrimidine] | > 30 | > 30 | > 30 | 12 µM and 12.3 µM | 69 |
